Non-standard residues stand in square brackets, D forms with d. Residues, ends and D or L forms follow the SMILES beside them. No end group written: not given here. 1Nal = N[C@@H](Cc1cccc2ccccc12)C(=O)O; Orn = NCCC[C@H](N)C(=O)O; Aib = CC(C)(N)C(=O)O
Experiments:
[1] = Circular dichroism helicity determination; assay type: physicochemical; details: percent helicity; for He (%) free: unbound peptide 5 μM in 5 mM phosphate buffer, pH 7.4, 37° C.; for He (%) SUVs: peptide-SUV complexes (20:1 EPC:Chol., Ri=30 and Ri=50); for He (%) SUVs / He (%) TFE: 37° C.; for He (%) mics: peptide-micelle complexes, Ri=100, 37° C.; for He (%) TFE: 5 μM peptide, 90% vol TFE
Protocol: Far UV circular dichroism spectra were recorded between 190 and 260 nm (in 0.5 nm or 0.2 nm increments) with a AVIV62DS spectrometer (AVIV Associates, Lakewood, N.J., USA) equipped with a thermoelectric cell holder and sample changer. The instrument was calibrated with (+)-10-[…]. Between one and three scans were collected for each sample, using 10 cm, 5 cm, 1 cm and 0.1 cm path length quartz Suprasil cells, respectively, for peptide concentrations of 10^−7 M to 10^−4 M. The bandwidth was fixed at 1.5 nm and the scan speed to 1s per wavelength step. The reported data are the mean of at least 2 or 3 independent measurements.
After background substraction, spectra were converted to molar ellipticity (θ) per residue in deg. […] dmol^−1. The peptide concentration was determined by amino acid analysis and also by absorption spectrometry on a Perkin Elmer Lambda 17 UV/Visible spectrophotometer when the peptide contained a chromophore (tryptophane, dansyl, naphtylalanine).
CD spectra were obtained with free, unbound peptide (5 μM in 5 mM phosphate buffer, pH 7.4); with peptide-SUV complexes (20:1 EPC:Chol., Ri=30 and Ri=50); with peptide-micelle complexes (1-myristoyl-2-hydroxy-sn-glycero-3-phosphatidyl choline, Ri=100); and with free, unbound peptide in the presence of 2,2,2-trifluoroethanol (TFE) (5 μM peptide, 90% vol TFE).
The SUVs were obtained by dispersing the lipids (10 mM, 20:1 EPC:Chol., Avanti Polar Lipids, AL) in phosphate buffer (5 mM, pH 7.4) with bubbling N2 for 5 min., followed by sonication (1.5 hr.) in a bath sonicator. The homogeneity of the preparation was checked by FPLC.
The micelles were obtained by dispersing the lipid (6 mM 1-myristoyl-2-hydroxy-sn-glycero-3-phosphatidyl choline, Avanti Polar Lipids, AL) in phosphate buffer (5 mM, pH 7.4) with bubbling N2 for 5 min., followed by vortexing.
To obtain the peptide-SUV complexes, SUVs were added to the peptide (5 μM in 5 mM phosphate buffer, pH 7.4) at a phospholipid-peptide molar ratio (Ri) of 30 or 50.
To obtain the peptide-micelle complexes, micelles were added to the peptide (5 μM in 5 mM phosphate buffer, pH 7.4) at a Ri of 100.
All spectra were recorded at 37° C.
The degree of helicity of the peptides in the various conditions was determined from the mean residue ellipticity at 222 nm (Chen et al., 1974, Biochemistry 13:3350-3359) or by comparing the CD spectra obtained to reference spectra available on databases (16 helical reference spectra from Provencher & Glockner, 1981, Biochemistry 20:33-37; denatured protein reference spectra from Venyaminov et al., 1993, Anal. Biochem. 214:17-24) using the CONTIN curve-fitting algorithm version 2DP, CD-1 pack (August 1982) (Provencher, 1982, Comput. Phys. Commun. 27:213-227, 229-242). Acceptable fit was determined using the statistical analysis methodology provided by the CONTIN algorithm. The error of all methods was ±5% helicity.

[2] = target: T1, LCAT (purified from human plasma) (Homo sapiens, UniProt P04180); assay: LCAT activation assay; assay type: biochemical; details: LCAT activation as compared with native human ApoA-I (= 100%), equivalent masses
T1 construct: from tissue; host or cells: human plasma
T1 sequence (P04180 25-440): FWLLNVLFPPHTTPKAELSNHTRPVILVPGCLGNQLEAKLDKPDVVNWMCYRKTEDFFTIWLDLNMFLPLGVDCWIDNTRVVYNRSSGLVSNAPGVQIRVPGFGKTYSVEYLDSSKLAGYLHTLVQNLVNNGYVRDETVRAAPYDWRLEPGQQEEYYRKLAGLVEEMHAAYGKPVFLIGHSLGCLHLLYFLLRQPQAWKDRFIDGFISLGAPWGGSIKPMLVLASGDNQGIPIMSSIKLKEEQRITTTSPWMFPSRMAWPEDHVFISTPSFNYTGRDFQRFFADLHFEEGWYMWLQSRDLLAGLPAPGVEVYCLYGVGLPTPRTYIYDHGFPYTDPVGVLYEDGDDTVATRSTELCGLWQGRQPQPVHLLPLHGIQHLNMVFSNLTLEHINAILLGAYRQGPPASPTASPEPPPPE
Summary of the method: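 Substrate SUVs of EPC or POPC with 14C-cholesterol (20:1 molar ratio), in 10 mM Tris, 0.14 M NaCl, 1 mM EDTA, pH 7.4, were preincubated with peptide or equal mass of plasma ApoA-I. Reaction started with human plasma LCAT; activation was measured as cholesterol-to-ester conversion relative to ApoA-I (100%).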

Compound | He (%) free [1] [%] | He (%) SUVs [1] [%] | He (%) mics [1] [%] | ACTIVITY (%) LCAT [2] [%] | He (%) TFE [1] [%]
LDDLLQKWAEAFNQLLKK [peptide 237, reference compound] | 30 | 45 | 66 | 11 | 
DWLKAFYDKVAEKLKEAF [peptide 244, reference compound] | 9 | 13 | 40 | 5 | 48
Ac-PVLDLFRELWEELKQKLK-NH2 [compound 199] | 35 | 80 | 77 | 76 | 79
CC(C)C[C@H](NC(=O)[C@H](CCCCN)NC(=O)[C@H](CCC(N)=O)NC(=O)[C@H](CCCCN)NC(=O)[C@H](Cc1cccc2ccccc12)NC(=O)[C@H](C)NC(=O)[C@H](CCC(=O)O)NC(=O)[C@H](CC(C)C)NC(=O)[C@H](CC(C)C)NC(=O)[C@H](CCC(=O)O)NC(=O)[C@H](CC(N)=O)NC(=O)[C@H](CC(C)C)NC(=O)[C@H](CC(C)C)NC(=O)[C@H](CCC(=O)O)NC(=O)[C@H](CCCNC(=N)N)NC(=O)[C@H](Cc1ccccc1)NC(=O)[C@H](CC(C)C)NC(=O)[C@H](CC(=O)O)NC(=O)[C@H](CC(C)C)NC(=O)[C@@H](NC(=O)[C@@H]1CCCN1)C(C)C)C(=O)N[C@@H](CCCCN)C(=O)O [peptide 10, PVLDLFRELLNELLEAZKQKLK] (H-PVLDLFRELLNELLEA[1Nal]KQKLK-OH) | 60 | 70 | 87 | 79 | 71
PLLELLKELLQELLEALKQKLK [compound 36] | 95 |  | 100 | 31 | 95
PVLDLFKELLNELLEALKQKLK [peptide 7] | 77 | 85 | 89 | 83 | 73
PVLDLFRELLNELLQKLK [compound 209] | 54 | 67 | 71 | 47 | 62
CC(C)C[C@H](NC(=O)[C@H](C)NC(=O)[C@H](CCC(=O)O)NC(=O)[C@H](CC(C)C)NC(=O)[C@H](CC(C)C)NC(=O)[C@H](CCC(=O)O)NC(=O)[C@H](CC(N)=O)NC(=O)[C@H](CC(C)C)NC(=O)[C@H](CC(C)C)NC(=O)[C@H](CCC(=O)O)NC(=O)[C@H](CCCNC(=N)N)NC(=O)[C@H](Cc1ccccc1)NC(=O)[C@H](CC(C)C)NC(=O)[C@H](CC(=O)O)NC(=O)[C@H](CC(C)C)NC(=O)[C@@H](NC(=O)[C@@H]1CCCN1)C(C)C)C(=O)N[C@@H](CCCCN)C(=O)N[C@@H](CCC(N)=O)C(=O)N[C@@H](CCCCN)C(=O)N[C@@H](CC(C)C)C(=O)N[C@@H](CCCCN)C(=O)O [compound 4] | 80 | 97 | 95 | 93 | 94
PVLDLFRNLLEELLEALQKKLK [compound 66] | 64 | 66 | 82 | 15 | 70
PVLDLFRELLNEGLEALKQKLK [compound 8] | 20 | 61 | 90 | 83 | 93
PVLELFENLLERWLDALQKKLK [compound 181] |  |  |  | 8 | 
PVLELWENLLERLLDALQKKLK [compound 176] |  |  |  | 11 | 
PVLELFEQLLEKLLDALQKKLK [compound 168] |  |  |  | 17 | 
CC(C)C[C@H](NC(=O)[C@H](C)NC(=O)[C@H](CCC(=O)O)NC(=O)[C@H](CC(C)C)NC(=O)[C@H](CC(C)C)NC(=O)[C@H](CCC(=O)O)NC(=O)[C@H](CC(N)=O)NC(=O)[C@H](CC(C)C)NC(=O)[C@H](CC(C)C)NC(=O)[C@H](CCC(=O)O)NC(=O)[C@H](CCCNC(=N)N)NC(=O)[C@H](Cc1ccccc1)NC(=O)[C@H](CC(C)C)NC(=O)[C@H](CC(=O)O)NC(=O)[C@H](CC(C)C)NC(=O)[C@@H](NC(=O)[C@H]1CCCN1)C(C)C)C(=O)N[C@@H](CCCCN)C(=O)N[C@@H](CCC(N)=O)C(=O)N[C@@H](CCCCN)C(=O)N[C@@H](CC(C)C)C(=O)N[C@@H](CCCCN)C(=O)O [compound 21] |  |  |  | 57 | 
CC(C)C[C@H](NC(=O)[C@H](C)NC(=O)[C@H](CC(=O)O)NC(=O)[C@H](CC(C)C)NC(=O)[C@H](CC(C)C)NC(=O)[C@H](CCCNC(=N)N)NC(=O)[C@H](CCC(=O)O)NC(=O)[C@H](CC(C)C)NC(=O)[C@H](CC(C)C)NC(=O)[C@H](CC(N)=O)NC(=O)[C@H](CCC(=O)O)NC(=O)[C@H](Cc1ccccc1)NC(=O)[C@H](CC(C)C)NC(=O)[C@H](CCC(=O)O)NC(=O)[C@H](CC(C)C)NC(=O)[C@@H](NC(=O)[C@@H]1CCCN1)C(C)C)C(=O)N[C@@H](CCC(N)=O)C(=O)N[C@@H](CCCN)C(=O)N[C@@H](CCCN)C(=O)N[C@@H](CC(C)C)C(=O)N[C@@H](CCCN)C(=O)O [compound 185, PVLELFENLLERLLDALQOOLO] (H-PVLELFENLLERLLDALQ[Orn][Orn]L[Orn]-OH) |  |  |  | 3 | 
AVLELFENLLERLLDALQKKLK [peptide 153] |  |  |  | 49 | 
PVLELFENLLEKLLDLLQKKLK [compound 171] |  |  |  | 16 | 
CC(C)C[C@H](NC(=O)[C@H](C)NC(=O)[C@H](CCC(=O)O)NC(=O)[C@H](CC(C)C)NC(=O)[C@H](CC(C)C)NC(=O)[C@H](CCC(=O)O)NC(=O)[C@H](CC(N)=O)NC(=O)[C@H](CC(C)C)NC(=O)[C@H](CC(C)C)NC(=O)[C@H](CCC(=O)O)NC(=O)[C@H](CCCNC(=N)N)NC(=O)[C@H](Cc1ccccc1)NC(=O)[C@H](CC(C)C)NC(=O)[C@H](CC(=O)O)NC(=O)[C@H](CC(C)C)NC(=O)[C@@H](NC(=O)C(C)(C)N)C(C)C)C(=O)N[C@@H](CCCCN)C(=O)N[C@@H](CCC(N)=O)C(=O)N[C@@H](CCCCN)C(=O)N[C@@H](CC(C)C)C(=O)N[C@@H](CCCCN)C(=O)O [compound 32, XVLDLFRELLNELLEALKQKLK] (H-[Aib]VLDLFRELLNELLEALKQKLK-OH) |  |  |  | 33 | 
Ac-PVLDLFRELGEELKQKLK-NH2 [compound 227] |  |  |  | 0 | 

From US7273848B2, “Apolipoprotein A-I agonists and their use to treat dyslipidemic disorders” (priority 1997, dated 2007)
